Experimental data: patent US20230084144A1, “THERAPEUTIC COMBINATIONS OF DRUGS AND METHODS OF USING THEM” (ConSynance Therapeutics, Inc., priority 2020, published 2023)
Several values for one entry are separate records, joined by “and”; a condition that tells them apart may be missing. Equal values may be shown once.

How the values were obtained:
[1] = molecular target: T1, serotonin transporters (SERT) (Homo sapiens, UniProt P31645); assay: PET receptor occupancy at SERT, tracer 11C-MADAM; assay type: in vivo; conditions: for SERT RO%: healthy males
T1 construct: from tissue; host or cells: brain (striatum, thalamus) of healthy male volunteers, in vivo PET
T1 sequence (P31645 whole entry): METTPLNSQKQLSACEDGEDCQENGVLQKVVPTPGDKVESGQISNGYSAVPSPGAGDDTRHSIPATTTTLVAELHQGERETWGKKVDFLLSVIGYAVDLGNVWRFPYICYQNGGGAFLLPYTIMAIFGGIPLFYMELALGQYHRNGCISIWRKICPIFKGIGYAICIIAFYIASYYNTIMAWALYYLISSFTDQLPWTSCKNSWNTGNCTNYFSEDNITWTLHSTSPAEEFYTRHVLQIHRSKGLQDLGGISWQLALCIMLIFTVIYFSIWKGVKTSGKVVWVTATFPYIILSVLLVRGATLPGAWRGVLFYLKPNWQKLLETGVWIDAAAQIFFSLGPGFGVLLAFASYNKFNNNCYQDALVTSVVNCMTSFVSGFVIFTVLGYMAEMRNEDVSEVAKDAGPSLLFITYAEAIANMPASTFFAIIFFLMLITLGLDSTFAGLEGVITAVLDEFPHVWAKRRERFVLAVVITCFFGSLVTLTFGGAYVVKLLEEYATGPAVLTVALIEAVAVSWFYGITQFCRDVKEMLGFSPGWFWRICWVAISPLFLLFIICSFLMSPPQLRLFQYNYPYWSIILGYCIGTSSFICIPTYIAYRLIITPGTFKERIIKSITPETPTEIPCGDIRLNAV
Excerpt: (§1) The PET study was a part of a strategy in previous clinical development of the compound of formula I to evaluate in healthy male volunteers with respect to safety, tolerability and pharmacokinetics as well as DAT and SERT occupancy.
(§2) The relationship between plasma the compound of formula I concentration and SERT occupancies, using the individual values, is presented in FIG. 8 and FIG. 9. The numeric values for the individual SERT and […] occupancy and the corresponding plasma concentrations are tabulated in Example 12.
(§3) Striatal receptor occupancy at dopamine transporters (DAT) and serotonin transporters (SERT) with plasma concentrations of Formula I at the midpoint time of the post dosing PET (positron emission tomography) scans (T=4 and 24) after once-a-day multiple doses of 3-60 mg and 10-60 mg for SERT and DAT healthy male cohorts, respectively (Tables below, RO stands for receptor occupancy). Post dosing PET scans were conducted at day 10 (4 h post last dose) and day 14 (24 h post last dose) assuming steady state conditions, using the specific DAT and SERT tracers ^11 C-PE2I and ^11 C-MADAM, respectively. For 45 mg and 60 mg cohorts, there was titration by administration of 30 mg for 3 days and then from day 4 the specified dose. Representative reports on using these two tracers are Learned-Coughlin SM et al, Biol Psychiatry.2003, 54(8):800-5; Jucaite A et al, Eur J Nucl Med Mol Imaging. 2006, 33(6):657-68; and Lundberg J et al, Int J Neuropsychopharmacol. 2007, 10(6):777-85.

[2] = 14-day once-a-day oral multiple ascending dose PK study; assay type: in vivo, human; parameters: AUC: unit not given here
Excerpt: Tabulated, day-14 PK data (Cmax, Ctrough and AUC) for healthy humans in a 14-day, once-a-day oral dosing, multiple ascending dose study of compound of Formula I.

[3] = molecular target: T2, dopamine transporters (DAT) (Homo sapiens, UniProt Q01959); assay: PET striatal receptor occupancy at DAT, tracer 11C-PE2I; assay type: in vivo; conditions: following multiple doses of 60 mg, PET study in healthy males
T2 construct: from tissue; host or cells: striatum of healthy male volunteers, in vivo PET
T2 sequence (Q01959 whole entry): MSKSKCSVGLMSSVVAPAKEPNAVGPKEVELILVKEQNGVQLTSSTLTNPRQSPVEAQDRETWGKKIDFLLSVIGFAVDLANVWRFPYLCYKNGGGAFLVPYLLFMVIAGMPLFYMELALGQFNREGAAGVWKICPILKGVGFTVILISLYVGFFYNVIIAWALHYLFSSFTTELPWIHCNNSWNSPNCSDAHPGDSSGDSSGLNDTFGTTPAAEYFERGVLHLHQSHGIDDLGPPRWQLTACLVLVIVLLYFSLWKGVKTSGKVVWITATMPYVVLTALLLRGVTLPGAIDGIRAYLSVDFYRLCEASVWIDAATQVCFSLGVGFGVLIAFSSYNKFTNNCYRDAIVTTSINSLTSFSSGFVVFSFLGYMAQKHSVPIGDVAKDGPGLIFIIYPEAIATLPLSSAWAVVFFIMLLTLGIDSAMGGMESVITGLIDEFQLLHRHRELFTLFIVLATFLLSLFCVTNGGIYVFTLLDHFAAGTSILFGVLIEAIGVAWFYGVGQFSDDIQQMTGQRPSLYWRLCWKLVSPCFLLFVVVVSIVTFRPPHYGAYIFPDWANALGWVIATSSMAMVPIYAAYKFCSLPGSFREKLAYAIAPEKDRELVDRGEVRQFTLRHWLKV
Excerpt: as §1, §2
as §3, with “Representative reports on using these two tracers are Learned-Coughlin SM et al, Biol Psychiatry.2003, 54(8):800-5; Jucaite A et al, Eur J Nucl Med Mol Imaging. 2006, 33(6):657-68; and Lundberg J et al, Int J Neuropsychopharmacol. 2007, 10(6):777-85.” left out

[4] = molecular target: T3, Transporter, Dopamine (DAT) (Homo sapiens, UniProt Q01959); assay: Radioligand binding, Transporter, Dopamine (DAT) (Eurofin Discovery 220320); conditions: 100 nM compound
T3 construct: host or cells: CHO-S cells
T3 sequence (Q01959 whole entry): as above

[5] = Stability in human EDTA plasma (LC-MS/MS validation); assay type: in vitro ADME
Experimental: (§4) A LC-MS/MS method was developed and validated for the quantitation of Formula I in 0.250 mL of human EDTA plasma in a total of 7 runs, out of which 1 run was rejected. The method utilized stable labeled Formula I as an internal standard. After the addition of the internal standard (equivalent to 285.4 ng/mL in human EDTA plasma) and 0.250 mL of each quality control (QC) sample and calibration standard, 0.525 mL of methyl t-butyl ether (MTBE) was added to the 96-well sample tubes. The organic layer was removed and evaporated to dryness using a liquid-liquid extraction (LLE). The residue was reconstituted and injected into the LC-MS/MS system. Chromatographic separation was achieved through gradient elution on an Acquity UPLC, BEH Shield RP18™, 50 × 2.1 mm, 1.7 µm particle size column. The mobile phase contained water, acetonitrile, ammonium formate, and formic acid. Detection was accomplished using a Sciex API 4000 tandem mass spectrometer in positive ion electrospray SRM mode. The standard curves, which ranged from 1.00 to 1000 ng/mL for Formula I, were fitted to a ⅟x2 weighted linear regression model. The intra-assay precisions, based on four levels of analytical QCs (low, mid, GM, and high), were within 4.2% CV and inter-assay precisions were within 7.2% CV for the analyte. The assay accuracy, expressed as %DEV, was within 6.4% of the nominal concentration values for the analyte. […] The LLOQ response ratio, when compared to the QC0 response ratio, was ≥ 5 in all matrix lots. The analyte was stable in human EDTA plasma for at least 24 h at room temperature, for at least 14 days at -20° C., and following at least 3 freeze- thaw cycles. The processed samples were stable for 72 hours (h) at room temperature.

[6] = molecular target: T4, Transporter, Norepinephrine (NET) (Homo sapiens, UniProt P23975); assay: Radioligand binding, Transporter, Norepinephrine (NET) (Eurofin Discovery 204410); conditions: 100 nM compound
T4 construct: host or cells: MDCK cells
T4 sequence (P23975 whole entry): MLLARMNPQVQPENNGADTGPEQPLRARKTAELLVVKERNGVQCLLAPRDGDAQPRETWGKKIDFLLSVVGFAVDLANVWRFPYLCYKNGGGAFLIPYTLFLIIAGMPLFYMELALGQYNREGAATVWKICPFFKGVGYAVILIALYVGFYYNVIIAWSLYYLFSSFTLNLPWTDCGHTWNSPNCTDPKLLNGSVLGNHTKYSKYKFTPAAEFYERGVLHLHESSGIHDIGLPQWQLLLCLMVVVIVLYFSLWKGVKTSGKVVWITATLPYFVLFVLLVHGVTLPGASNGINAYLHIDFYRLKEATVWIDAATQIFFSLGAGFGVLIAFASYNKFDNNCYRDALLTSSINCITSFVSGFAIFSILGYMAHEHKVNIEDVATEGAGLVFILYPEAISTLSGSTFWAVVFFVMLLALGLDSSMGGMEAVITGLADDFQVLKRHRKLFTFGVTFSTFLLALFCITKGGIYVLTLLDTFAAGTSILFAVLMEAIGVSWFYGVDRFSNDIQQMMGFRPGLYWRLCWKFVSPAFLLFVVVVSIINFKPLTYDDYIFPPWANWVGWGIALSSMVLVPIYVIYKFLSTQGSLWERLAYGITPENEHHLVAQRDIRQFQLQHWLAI

[7] = Population PK model (3-compartment) on human PK data; conditions: healthy volunteers, 3-compartment population PK model
Excerpt: In alternative embodiments, provided are pharmacokinetic modeling and simulation methods for Formula I, comprising using human PK data, as described sequentially in FIG. 25 to FIG. 29. A 3-compartment model best described the human PK data. Between-patient variability in healthy volunteers were 20.2%.

[8] = Plasma concentrations at midpoint time of post dosing PET scans; assay type: in vivo, human; conditions: healthy males
Experimental: as §4, §3

SMILES: Clc1ccc(C2CNCc3cc(-c4ccc5ncnn5c4)ccc32)cc1Cl (stereo not drawn) [Formula I, 7-([1,2,4]triazolo[1,5-a]pyridin-6-yl)-4-(3,4-dichlorophenyl)-1,2,3,4-tetrahydroisoquinoline]
- SERT RO% ([1]; 10 mg once-a-day, day 10, 4 h post last dose): 53% and 52%
- SERT RO% ([1]; 10 mg once-a-day, day 14, 24 h post last dose): 47% and 48% and 51%
- SERT RO% ([1]; 30 mg once-a-day, day 10, 4 h post last dose): 71% and 72% and 74%
- SERT RO% ([1]; 30 mg once-a-day, day 14, 24 h post last dose): 69% and 66% and 67%
- SERT RO% ([1]; 45 mg once-a-day, day 10, 4 h post last dose): 73% and 74% and 75%
- SERT RO% ([1]; 45 mg once-a-day, day 14, 24 h post last dose): 73% and 75% and 78%
- SERT RO% ([1]; 60 mg once-a-day, day 10, 4 h post last dose): 70% and 61% and 76%
- SERT RO% ([1]; 60 mg once-a-day, day 14, 24 h post last dose): 76% and 72% and 77%
- SERT occupancy ([1]; multiple doses of 30-60 mg at steady state, healthy male volunteers): 65-75%
- Formula I plasma concentration (ng/ml), Cmax ([2]; healthy person alpha, 3 mg daily oral, day 14, Cmax (blood draw 1-3 h)): 64 ng/mL and 67 ng/mL and 63 ng/mL and 77 ng/mL and 74 ng/mL
- Formula I plasma concentration ([2]; healthy person alpha, 3 mg daily oral, day 14, blood draw 0 h): 36 ng/mL and 40 ng/mL and 31 ng/mL and 51 ng/mL and 44 ng/mL
- Formula I plasma concentration ([2]; healthy person alpha, 3 mg daily oral, day 14, blood draw about 23-24 h): 38 ng/mL and 42 ng/mL and 34 ng/mL and 48 ng/mL and 50 ng/mL
- AUC ([2]; healthy person alpha, 3 mg daily oral, day 14, printed in row of 23-24 h blood draw): 369 and 414 and 338 and 525 and 439 and 374
- Formula I plasma concentration (ng/ml), Cmax ([2]; healthy person alpha, 10 mg daily oral, day 14, Cmax (blood draw 1-3 h)): 249 ng/mL and 243 ng/mL and 285 ng/mL and 259 ng/mL and 242 ng/mL
- Formula I plasma concentration ([2]; healthy person alpha, 10 mg daily oral, day 14, blood draw 0 h): 127 ng/mL and 134 ng/mL and 183 ng/mL and 155 ng/mL and 147 ng/mL
- Formula I plasma concentration ([2]; healthy person alpha, 10 mg daily oral, day 14, blood draw about 23-24 h): 130 ng/mL and 140 ng/mL and 138 ng/mL and 178 ng/mL and 160 ng/mL and 162 ng/mL
- AUC ([2]; healthy person alpha, 10 mg daily oral, day 14, printed in row of 23-24 h blood draw): 1263 and 1447 and 1302 and 1925 and 1884 and 1985
- Formula I plasma concentration (ng/ml), Cmax ([2]; healthy person alpha, 45 mg daily oral, day 14, Cmax (blood draw 1-2 h)): 1570 ng/mL and 1394 ng/mL and 1579 ng/mL and 1348 ng/mL and 1808 ng/mL
- Formula I plasma concentration ([2]; healthy person alpha, 45 mg daily oral, day 14, blood draw 0 h): 866 ng/mL and 695 ng/mL and 862 ng/mL and 791 ng/mL and 957 ng/mL
- Formula I plasma concentration ([2]; healthy person alpha, 45 mg daily oral, day 14, blood draw 23 h): 890 ng/mL and 693 ng/mL and 941 ng/mL and 779 ng/mL and 924 ng/mL
- AUC ([2]; healthy person alpha, 45 mg daily oral, day 14, printed in row of 23 h blood draw): 6276 and 8418 and 6879 and 8712 and 8687 and 9833
- Formula I plasma concentration (ng/ml), Cmax ([2]; healthy person beta, 45 mg daily oral, day 14, Cmax (blood draw 1-3 h)): 1465 ng/mL and 1198 ng/mL and 1313 ng/mL and 1713 ng/mL and 2112 ng/mL
- Formula I plasma concentration ([2]; healthy person beta, 45 mg daily oral, day 14, blood draw 0 h): 832 ng/mL and 732 ng/mL and 714 ng/mL and 973 ng/mL and 1274 ng/mL
- Formula I plasma concentration ([2]; healthy person beta, 45 mg daily oral, day 14, blood draw about 24 h): 929 ng/mL and 649 ng/mL and 749 ng/mL and 1033 ng/mL and 1249 ng/mL
- AUC ([2]; healthy person beta, 45 mg daily oral, day 14, printed in row of 24 h blood draw): 10113 and 9936 and 6959 and 8066 and 11276 and 12977
- DAT occupancies [3]: ≤ 60%
- DAT occupancies ([3]; listed as formula I): up to 60%
- inhibition at 0.1 µM [4]: 92%
- stable in human EDTA plasma following freeze-thaw cycles [5]: at least 3 freeze- thaw cycles
- stable in human EDTA plasma at -20° C. ([5]; -20° C.): at least 14 days
- processed samples stable at room temperature ([5]; processed (extracted) samples, room temperature): 72 h
- stable in human EDTA plasma at room temperature ([5]; room temperature): at least 24 h
- inhibition at 0.1 µM [6]: 84%
- Between-patient variability [7]: 20.2%
- Formula I plasma concentration ([8]; DAT cohort, 10 mg once-a-day, day 10, 4 h): 214 ng/mL and 173 ng/mL
- Formula I plasma concentration ([8]; DAT cohort, 10 mg once-a-day, day 14, 24 h): 149 ng/mL and 147 ng/mL
- Formula I plasma concentration ([8]; DAT cohort, 45 mg once-a-day, day 10, 4 h): 924 ng/mL and 905 ng/mL
- Formula I plasma concentration ([8]; DAT cohort, 45 mg once-a-day, day 14, 24 h): 668 ng/mL and 673 ng/mL
- Formula I plasma concentration ([8]; DAT cohort, 60 mg once-a-day, day 10, 4 h): 1263 ng/mL
- Formula I plasma concentration ([8]; DAT cohort, 60 mg once-a-day, day 14, 24 h): 991 ng/mL
- Formula I plasma concentration ([8]; SERT cohort, 3 mg once-a-day, day 10, 4 h): 64 ng/mL and 63 ng/mL
- Formula I plasma concentration ([8]; SERT cohort, 3 mg once-a-day, day 14, 24 h): 45 ng/mL and 42 ng/mL
- Formula I plasma concentration ([8]; SERT cohort, 10 mg once-a-day, day 10, 4 h): 184 ng/mL and 212 ng/mL
- Formula I plasma concentration ([8]; SERT cohort, 10 mg once-a-day, day 14, 24 h): 129 ng/mL and 156 ng/mL
- Formula I plasma concentration ([8]; SERT cohort, 30 mg once-a-day, day 10, 4 h): 847 ng/mL and 667 ng/mL
- Formula I plasma concentration ([8]; SERT cohort, 30 mg once-a-day, day 14, 24 h): 434 ng/mL and 567 ng/mL
- Formula I plasma concentration ([8]; SERT cohort, 45 mg once-a-day, day 10, 4 h): 1191 ng/mL and 1105 ng/mL
- Formula I plasma concentration ([8]; SERT cohort, 45 mg once-a-day, day 14, 24 h): 904 ng/mL and 895 ng/mL
